{"source": "ChEMBL document CHEMBL5154706", "about": "“Synthesis of lathyrane diterpenoid nitrogen-containing heterocyclic derivatives and evaluation of their anti-inflammatory activities” (Bioorg Med Chem, 2022)", "key": {"RAW264.7 [1]": {"system": "RAW264.7", "experiment": "Antiinflammatory activity against mouse RAW264.7 cells assessed as inhibition of LPS-induced NO production preincubated for 3 hrs followed by LPS stimulation and measured after 24 hrs by Griess reagent based assay", "assay_type": "functional, cell-based"}, "RAW264.7 [2]": {"system": "RAW264.7", "experiment": "Antiinflammatory activity against LPS-induced mouse RAW264.7 cells assessed as increase in intrinsic nitric oxide level at 0.5 ug/ml measured after 3 hrs by Griess reagent based assay", "assay_type": "functional, cell-based", "conditions": "dose 0.5 µg/ml"}, "RAW264.7 [3]": {"system": "RAW264.7", "experiment": "Antiinflammatory activity against mouse RAW264.7 cells assessed as inhibition of LPS-induced ROS generation at 0.25 to 2 uM preincubated for 3 hrs followed by LPS stimulation and measured after 12 hrs by DCFH-DA probe based flow cytometry", "assay_type": "functional, cell-based", "conditions": "dose 0.25-2 µM, time 15.0 hrs"}, "RAW264.7 [4]": {"system": "RAW264.7", "experiment": "Antiinflammatory activity against LPS-induced mouse RAW264.7 cells assessed as increase in Nrf2 expression preincubated for 3 hrs followed by LPS stimulation and measured after 24 hrs by Western blot analysis", "assay_type": "functional, cell-based", "conditions": "dose 0.25-2 µM, time 27.0 hrs, DDE = dose-dependent effect"}, "RAW264.7 [5]": {"system": "RAW264.7", "experiment": "Antiinflammatory activity against LPS-induced mouse RAW264.7 cells assessed as increase in HO-1 expression preincubated for 3 hrs followed by LPS stimulation and measured after 24 hrs by Western blot analysis", "assay_type": "functional, cell-based", "conditions": "dose 0.25-2 µM, time 27.0 hrs, DDE = dose-dependent effect"}, "RAW264.7 [6]": {"system": "RAW264.7", "experiment": "Antiinflammatory activity against LPS-induced mouse RAW264.7 cells assessed as decrease in Keap1 expression preincubated for 3 hrs followed by LPS stimulation and measured after 24 hrs by Western blot analysis", "assay_type": "functional, cell-based", "conditions": "dose 0.25-2 µM, time 27.0 hrs, DDE = dose-dependent effect"}, "[7]": {"target": "T1, Nuclear factor erythroid 2-related factor 2 (Mus musculus) (UniProt Q60795)", "T1 sequence (whole entry)": "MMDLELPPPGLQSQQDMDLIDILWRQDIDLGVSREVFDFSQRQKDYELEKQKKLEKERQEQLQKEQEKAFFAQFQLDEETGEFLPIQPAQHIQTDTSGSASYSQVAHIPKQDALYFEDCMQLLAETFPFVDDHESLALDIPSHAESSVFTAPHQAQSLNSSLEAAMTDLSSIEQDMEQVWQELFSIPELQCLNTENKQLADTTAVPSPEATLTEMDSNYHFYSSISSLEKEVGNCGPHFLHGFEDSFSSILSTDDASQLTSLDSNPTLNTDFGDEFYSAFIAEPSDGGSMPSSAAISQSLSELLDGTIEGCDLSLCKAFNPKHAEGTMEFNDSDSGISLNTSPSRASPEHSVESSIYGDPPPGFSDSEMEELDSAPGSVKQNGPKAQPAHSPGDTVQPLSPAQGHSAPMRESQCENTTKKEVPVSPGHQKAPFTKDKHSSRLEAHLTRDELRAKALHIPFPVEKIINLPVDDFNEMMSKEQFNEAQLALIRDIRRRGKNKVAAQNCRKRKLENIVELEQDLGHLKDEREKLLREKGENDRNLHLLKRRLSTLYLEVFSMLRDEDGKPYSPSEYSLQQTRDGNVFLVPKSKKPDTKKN", "experiment": "Induction of LPS-induced Nrf2 nuclear translocation in mouse RAW264.7 cells at 2 uM preincubated for 3 hrs followed by LPS stimulation and measured after 12 hrs by immunofluorescence staining based confocal laser scanning microscopy", "assay_type": "cell-based", "conditions": "time 15.0 hrs"}}, "note": "pIC50: −log10 of the molar value. Active and inactive are the calls of the source. The rule behind the calls is not given here."}
{"compound": "C=C1CC[C@H]2[C@@H](/C=C(\\C)C(=O)[C@@]3(O)C[C@H](C)[C@H](O)[C@@H]3[C@H]1OC(=O)CCC(=O)OCCOCCOc1no[n+]([O-])c1S(=O)(=O)c1ccccc1)C2(C)C", "values": [{"measurement": "pIC50", "setting": "RAW264.7 [1]", "result": 6.42}, {"measurement": "Activity", "setting": "RAW264.7 [2]", "result": "Active"}, {"measurement": "inhibition", "setting": "RAW264.7 [3]", "result": "Active"}, {"measurement": "Activity", "setting": "RAW264.7 [4]", "result": "Dde"}, {"measurement": "Activity", "setting": "RAW264.7 [5]", "result": "Dde"}, {"measurement": "Activity", "setting": "RAW264.7 [6]", "result": "Dde"}, {"measurement": "Activity", "setting": "[7]", "result": "Active"}]}
